Measurements: patent publication US20100041632A1, “USES OF THE CARBOXY-AMIDO-TRIAZOLE COMPOUNDS AND SALTS THEREOF” (priority 2006, published 2010)

Tests used:
TNF-α = TNF-α levels in paw tissue and serum of adjuvant arthritis rat (ELISA); assay type: in vivo; conditions: administered in combination with CAI
Description: (§1) Blood was collected from eve socket on day 29 and left in room temperature to allow coagulating. Then serum was separated by centrifugation at 3000 rpm for 10 min and kept in −20° C. After animals were sacrificed, the subcutaneous tissue of the right hind paw and that surrounding the tarsotibial joints was removed, broke into pieces, and placed in 5 ml normal saline (0.9%). The tissues were homogenized in a high speed homogenizer. Then the homogenate was centrifuged at 4° C. and 10,000 rpm for 15 min. The supernatants were collected and stored at −20° C. until further analysis.
(§2) IL-1β and TNF-α levels in paw tissue and serum were measured using specific rat ELISA kits according to the manufacturer's instructions.

IL-1β = IL-1β levels in paw tissue and serum of adjuvant arthritis rat (ELISA); assay type: in vivo; conditions: administered in combination with CAI
Description: as §1, with “The adjuvant arthritis rat was prepared as described in example 8. Treatment was performed as described in example 8. Blood” for “Blood”
as §2

Kunming mice [1] = experiment: Croton oil-induced ear edema mouse model; assay type: in vivo; conditions: ear weight difference 4 hours after 2% croton oil; CAI/analogs 2 mg/ml ig, dexamethasone 0.2 mg/ml ip, 0.1 ml/10 g/day, 3 days
Description: Male Kunming mice, weighted 18-22 g, were randomly divided to the following experiment groups, 20 mice/group:
Negative control: normal saline was injected (ig), 0.1 ml/10 g/day for 3 consecutive days.
Vehicle control: PEG400 was injected (ig), […] for 3 consecutive days.
Positive control: Dexamethasone (0.2 mg/ml) was injected (ip), 0.1 ml/10 g/day for 3 consecutive days.
Test group: CAI or its analogs (2 mg/ml, analogs are as described in example 5) was administered (ig), 0.1 ml/10 g/day for 3 consecutive days.
8 hours after the last administration, 20 μl of croton oil solution (2%) was applied to the right ear of each mouse. The left ear remained untreated as control. The animals were sacrificed 4 hours later, and a piece of tissue was punched from the same position of the treated and untreated ear. The tissues were weighed on a 0.1 mg balance. The difference in weight between the two pieces of tissue of each mouse was taken as a measure of swelling intensity.

rats = experiment: Granulomatous tissue formation (implanted tampon); assay type: in vivo; conditions: 7 days; CAI 20 mg/kg/day p.o.; dexamethasone 0.067 mg/kg/day i.p.
Description: 44 rats (160 g) were randomly divided into 4 groups (11 rats/group). Animals were slightly anaesthetized by ether. After sterilization, the groin was cut bilaterally. A sterile tampon (50 mg) was implanted (sc). On the same day, the following treatments were administered: N.S. (i.p., control group), 0.067 mg/kg/day dexamethasone (i.p., positive control), 20 mg/kg/day CAI (p.o., dissolved in PEG 400, test group) and 0.067 mg/kg/day dexamethasone+20 mg/kg/day CAI (p.o., dissolved in PEG 400, combination group). After 7 days administration, the animals were sacrificed. The cotton was removed. The granulomatous tissue was dried at 60° C. oven for 12 hr and weighed. Increment in the dry weight of the tissue was taken as measure of granuloma formation. The Increment was adjusted for respective body weight, and the mean value for each group was calculated.

Wistar rats = experiment: Adjuvant induced arthritis (AA) of rat, paw oedema; assay type: in vivo
Description: Negative control (AA+NS): […] positive control (AA+Dex): dexamethasone, i.p., 0.067 mg/kg/day. Vehicle control (AA+PEG400): […] CAI (AA+CAI): 20 mg/ml CAI, ig, 0.1 ml/100 g/day (20 mg/kg/day). Combination (AA+CAI+Dex): dexamethasone, 0.067 mg/kg/day (i.p.) plus CAI 20 mg/kg/day (p.o.). Normal volumes of left and right hind paw were measured before adjuvant injection. […]

Kunming mice [2] = experiment: Effect of CAI on drug addiction caused by morphine (naloxone-induced jumping)
Description: 160 Kunming mice (18-22 g, half male and half female) were divided into 4 groups randomly, with 40 mice per group:
Control group with solvent, PEG400/N.S. (10 μl/g/day PEG400, (ig), 4 days);
Group treated with CAI, CAI/N.S. (CAI is resolved in PEG400 to reach a final concentration of […], 20 mg CAI/kg/day was administered (ig) for 4 days, N.S. was taken according to morphine administration in table 1);
Group treated with morphine, PEG400/morphine (10 μl/g/day PEG400 was administered (ig) for 4 days, morphine was administered according to the table below);
4 hours after the morphine administration on the fifth day, animals of each group was injected (ip) with 1 mg/kg naloxone and then put into a tank (5000 ml) immediately. The jump frequency in 30 minutes was recorded. Two-factor analysis of variance by SPSS was performed to analyse the experiment results.

Kunming mice [3] = experiment: Formalin test (analgesic effect); assay type: in vivo
Description: 320 Kunming mice (18-22 g, half male and half female) were divided into 4 groups randomly with 80 animals in each group.
Control group with dissolvent (PEG400/N.S.): 10 μl PEG400 was administered (ig) twice with the interval of 24 hours. The pain intensity test was carried out 8 hours after the second administration. 200 μl N.S. is injected (sc) 5 minutes before the test.
(§3) Morphine/PEG400 group: 10 μl PEG400 was administered (ig) twice with the interval of 24 hours. The pain intensity test was carried out 8 hours after the second administration. Morphine (2 mg/kg body weight) was injected (sc) 5 minutes before the test.
(§4) CAI/N.S. group: CAI (20 mg/kg body weight, 2 mg/ml) was administered (ig) twice with the interval of 24 hours. The pain intensity test was carried out 8 hours after the second administration. 200 μl N.S. was injected (sc) 5 minutes before the test.
(§5) The pain intensity test was carried out 8 hours after the second administration. Morphine (2 mg/kg body weight) was injected (sc) 5 minutes before the test.
5 minutes after the morphine or N.S. injection, 20 μl 2% formalin was injected (sc) into the subplantar space of the hind paw. The animals were placed immediately in a glass cylinder hanging on a holder, with a mirror placed below with 30° slope to observe the paw responses. The pain responses of the animals with injected paws were recorded; a pain ranking was recorded as follows: 3=the injected paw is licked, bitten, or shaken; 2=the injected paw is elevated and is not in contact with any other surface; 1=the injected paw has little or no weight on it; 0=the injected paw is not favored. The duration of each of the 4 behavioral categories was recorded. The observation lasted for 15 minutes. A pain intensity score was calculated by multiplying the amount of time spent in each category by its assigned category score and adding these products together.

Kunming mice [4] = experiment: Hot plate test (analgesic effect); assay type: in vivo
Description: Kunming mice (18-22 g, female) were randomly divided into 4 groups with 20 animals per group.
(§6) Control group with dissolvent: 10 μl PEG400 was administered (ig) twice with the interval of 24 hours. The pain intensity test was carried out 8 hours after the second administration. 200 μl N.S. was injected (sc) 5 minutes before the test.
as §3, §4, §5
The mice were placed onto a hot plate (53±0.5° C.) and the latency periods (second) of hopping responses were recorded as the pain threshold index.

Kunming mice [5] = experiment: Radiant heat test (tail-flick); assay type: in vivo
Description: The radiant heat dolorimeter (Collumbus Instruments) is used in this model with the tail-flick mode and the exposure rate of 20. The latency periods (TFL) starting from the beginning of exposure to the tail-flick responses were recorded as the pain threshold. The exposure time lasted for 16 seconds.
Kunming mice (18-22 g, male) are tested for the basic pain threshold before the test with drug administration, and those with pain threshold longer than 16 seconds are excluded. The selected mice are divided into 4 groups with 15 animals per group.
as §6, §3, §4
The pain intensity test was carried out 8 hours after the second administration, morphine (2 mg/kg body weight) was injected (sc) 5 minutes before the test.
The pain threshold of each mouse was tested before and after morphine or N.S. injection. The values after drug administration minus those before drug administration were considered to be the changing index of pain threshold.

## CC(=O)O.NC(=O)c1nnn(Cc2cc(Cl)c(C(=O)c3ccc(Cl)cc3)c(Cl)c2)c1N [CAI acetate]
TNF-α
  Inhibitory effect on serum levels of TNF-α (in words): obvious and even more pronounced
IL-1β
  Inhibitory effect on serum levels of IL-1β (in words): obvious and even more pronounced

## Cl.NC(=O)c1nnn(Cc2cc(Cl)c(C(=O)c3ccc(Cl)cc3)c(Cl)c2)c1N [CAI hydrochlorate]
TNF-α
  Inhibitory effect on serum levels of TNF-α (in words): obvious and even more pronounced
IL-1β
  Inhibitory effect on serum levels of IL-1β (in words): obvious and even more pronounced

## C[C@@H]1C[C@H]2[C@@H]3CCC4=CC(=O)C=C[C@]4(C)[C@@]3(F)[C@@H](O)C[C@]2(C)[C@@]1(O)C(=O)CO [dexamethasone, reference compound]
Kunming mice [1]
  Swelling intensity (mg) mean ± std: 1.5 ± 0.4 mg
rats
  granulomatous tissue:bady weight ratio (mean ± std): 0.064 ± 0.00495
Wistar rats; 1 d, CAI 20 mg/kg/day ig, Dex 0.067 mg/kg/day i.p.
  Primary paw oedema (%), mean ± std: 111.3 ± 13.6 %
Wistar rats; 2 d
  Primary paw oedema (%), mean ± std: 121.9 ± 16.0 %
Wistar rats; 5 d
  Primary paw oedema (%), mean ± std: 107.4 ± 12.5 %
Wistar rats; 8 d
  Primary paw oedema (%), mean ± std: 103.6 ± 14.0 %
Wistar rats; 11 d
  Primary paw oedema (%), mean ± std: 100.3 ± 21.0 %
Wistar rats; 14 d
  Primary paw oedema (%), mean ± std: 100.0 ± 11.3 %
Wistar rats; 14 d, right hind paw
  Secondary paw oedema (%), mean ± std: 1.1 ± 1.0 %
Wistar rats; 17 d
  Primary paw oedema (%), mean ± std: 95.3 ± 15.7 %
  Secondary paw oedema (%), mean ± std: 1.9 ± 1.4 %
Wistar rats; 20 d
  Primary paw oedema (%), mean ± std: 83.9 ± 24.0 %
  Secondary paw oedema (%), mean ± std: 2.8 ± 0.9 %
Wistar rats; 23 d
  Primary paw oedema (%), mean ± std: 80.4 ± 17.8 %
  Secondary paw oedema (%), mean ± std: 4.6 ± 1.4 %
Wistar rats; 26 d
  Primary paw oedema (%), mean ± std: 78.6 ± 23.1 %
  Secondary paw oedema (%), mean ± std: 3.6 ± 1.7 %
Wistar rats; 29 d
  Primary paw oedema (%), mean ± std: 73.9 ± 18.0 %
  Secondary paw oedema (%), mean ± std: 2.5 ± 1.7 %

## CN1CC[C@]23c4c5ccc(O)c4O[C@H]2[C@@H](O)C=C[C@H]3[C@H]1C5 [morphine, reference compound]
Kunming mice [2]; jump frequency in 30 minutes after naloxone 1 mg/kg ip, CAI 20 mg/kg/day ig 4 days, morphine per Table 1, mean ± std
  Mean number of jump: 41 ± 58
Kunming mice [2]; naloxone-induced jumping, two-factor ANOVA vs PEG400/N.S.
  Addiction / withdrawal syndrome (in words): causes obvious withdrawal syndrome
Kunming mice [3]; 2% formalin sc hind paw, 15 minutes observation, CAI 20 mg/kg ig twice, morphine 2 mg/kg sc
  Pain intensity score (mean ± std): 756 ± 441
Kunming mice [3]; pain scores compared with the control group
  Analgesic effect in formalin test (in words): decrease significantly
Kunming mice [4]; hot plate 53±0.5° C., latency of hopping response, CAI 20 mg/kg ig twice, morphine 2 mg/kg sc
  Pain threshold (sec, mean ± std): 31.9 ± 12.1 s
Kunming mice [4]; two-factor ANOVA
  Analgesic effect in hot plate test (in words): extends the pain response time very significantly
Kunming mice [5]; compared with the control group
  Analgesic effect in radiant heat test (in words): extended the pain threshold time very significantly
Kunming mice [5]; tail-flick latency after minus before drug, CAI 20 mg/kg ig twice, morphine 2 mg/kg sc
  Pain threshold change (seconds, mean ± std): 6.95 ± 5.69 s
